One assay concerns Plasmodium berghei. The experiment in a line: In vivo antimalarial activity against Plasmodium berghei infected mice (Mus musculus) at 640 mg/kg subcutaneous single dose. The assay is classed as functional.
Conditions: not given
In turn, `OC(c1cc(C(F)(F)F)nc2c1ccc1ccccc12)C1CCCCN1` (stereo unspecified) showed a MfI of 0.13.

Turning to `Cc1cc(C)c2nc(Oc3ccc(Cl)cc3)cc(C(O)C3CCCCN3)c2c1` (stereo unspecified), the MfI was found to be 0.03.

For the compound `OC(c1cc(C(F)(F)F)nc2c(Cl)cc(Cl)cc12)C1CCCCN1` (stereo unspecified), the MfI was determined as 0.17.

Consider `OC(c1cc(-c2ccccc2)nc2c(Cl)cccc12)C1CCCCN1` (stereo unspecified), for which the MfI stood at 0.05.

The compound `OC(c1cc(C(F)(F)F)nc2c(Cl)cccc12)C1CCCCN1` (stereo unspecified) yielded a MfI of 0.03.

`Cc1cc(C)c2nc(-c3ccc(Cl)cc3)cc(C(O)C3CCCCN3)c2c1` (stereo unspecified) registered a MfI of 0.03.

`OC(c1cc(-c2ccc(Cl)cc2)nc2c(C(F)(F)F)cccc12)C1CCCCN1` (stereo unspecified): the MfI is 0.31.

For `Cc1cccc2c(C(O)C3CCCCN3)cc(-c3ccc(F)cc3)nc12` (stereo unspecified), the MfI was found to be 0.05.

As to `OC(c1cc(-c2ccccc2)nc2c(Cl)cc(Cl)cc12)C1CCCCN1` (stereo unspecified), the MfI came out at 0.04.

`Cc1ccc(-c2cc(C(O)C3CCCCN3)c3cccc(C(F)(F)F)c3n2)cc1` (stereo unspecified) displayed a MfI of 0.09.

As to `OC(c1cc(C(F)(F)F)nc2c1cc(Cl)c1ccccc12)C1CCCCN1` (stereo unspecified), the MfI was 0.12.

`COc1ccc(-c2cc(C(O)C3CCCCN3)c3cccc(C(F)(F)F)c3n2)cc1` (stereo unspecified) gave a MfI of 0.07.

With `OC(c1cc(-c2cccc(C(F)(F)F)c2)nc2c(C(F)(F)F)cccc12)C1CCCCN1` (stereo unspecified), the MfI was 1.2.

`Cc1cc(C)c2nc(-c3ccc(F)cc3)cc(C(O)C3CCCCN3)c2c1` (stereo unspecified) had a MfI of 0.03.

For `OC(c1cc(-c2ccccc2)nc2c1ccc1ccccc12)C1CCCCN1` (stereo unspecified), the MfI was 0.1.

In the case of `OC(c1cc(-c2ccccc2)nc2c(C(F)(F)F)cccc12)C1CCCCN1` (stereo unspecified), the MfI is on record as 0.11.

As for `Cc1cccc2c(C(O)C3CCCCN3)cc(-c3ccc(Cl)cc3)nc12` (stereo unspecified), the MfI is reported as 0.07.

For `OC(c1cc(Oc2ccc(Cl)c(Cl)c2)nc2c(Cl)cc(Cl)cc12)C1CCCCN1` (stereo unspecified), the MfI is 0.87.

For `COc1ccc(-c2cc(C(O)C3CCCCN3)c3cc(C)cc(C)c3n2)cc1` (stereo unspecified), the MfI stood at 0.03.

Regarding `OC(c1cc(-c2ccc(Cl)cc2)nc2c(Cl)cc(Cl)cc12)C1CCCCN1` (stereo unspecified), the MfI worked out at 1.29.

Compound `COc1cc(C(F)(F)F)c2nc(C(F)(F)F)cc(C(O)C3CCCCN3)c2c1` (stereo unspecified) registered a MfI of 0.81.

`OC(c1cc(Oc2ccc(Cl)cc2)nc2c(Cl)cc(Cl)cc12)C1CCCCN1` (stereo unspecified) displayed a MfI of 0.8.

In turn, `Cc1cc(C)c2nc(Nc3ccc(Cl)cc3)cc(C(O)C3CCCCN3)c2c1` (stereo unspecified) displayed a MfI of 0.03.

In turn, `Cc1ccc(-c2cc(C(O)C3CCCCN3)c3cc(C)cc(C)c3n2)cc1` (stereo unspecified) returned a MfI of 0.1.

The assay is the same for the next values; noted with them: 640 mg/kg.
Consider `OC(c1cc(C(F)(F)F)nc2c(C(F)(F)F)cccc12)C1CCCCN1` (stereo in doubt; 1d) [MEFLOQUINE], for which the MfI worked out at 0.81.

As to `OC(c1cc(C(F)(F)F)nc2c(C(F)(F)F)cccc12)C1CCCCN1` (stereo in doubt; 1a) [MEFLOQUINE], the MfI is on record as 1.

In another assay the test system is Plasmodium berghei. The experiment in a line: In vivo antimalarial activity against Plasmodium berghei infected mice (Mus musculus) at 640 mg/kg subcutaneous single dose; NC=non-curative. Set-up: dose 640 mg/kg. The assay is classed as functional, organism-based.
Conditions: not given
With `Cc1ccc(-c2cc(C(O)C3CCCCN3)c3cccc(C)c3n2)cc1` (stereo unspecified), the MfI result is on record as “Noncurative dose”.

Turning to `OC(c1ccnc2c(C(F)(F)F)cccc12)C1CCCCN1` (stereo unspecified), the MfI result is given as “Noncurative dose”.

Regarding `Cc1cc(C(O)C2CCCCN2)c2cc(Cl)cc(Cl)c2n1` (stereo unspecified), the MfI result is recorded as “Noncurative dose”.

Turning to `Cc1cc(C)c2nc(CC/C=C/c3ccc(Cl)cc3)cc(C(O)C3CCCCN3)c2c1` (stereo unspecified), the MfI result is recorded as “Noncurative dose”.

On to `OC(c1ccnc2c(Cl)cc(Cl)cc12)C1CCCCN1` (stereo unspecified), for which the MfI result is on record as “Noncurative dose”.

In the case of `OC(c1cc(C(F)(F)F)nc2c(F)cccc12)C1CCCCN1` (stereo unspecified), the MfI entry is “Noncurative dose”.

For `Cc1cc(C)c2nc3c(c(C(O)C4CCCCN4)c2c1)CCC3` (stereo unspecified), the MfI entry is recorded as “Noncurative dose”.

For the compound `O=C(Nc1cccc(C(F)(F)F)c1)c1cc(C(O)C2CCCCN2)c2cccc(C(F)(F)F)c2n1` (stereo unspecified), the MfI result was “Noncurative dose”.

`Cc1cccc2c(C(O)C3CCCCN3)cc(C(F)(F)F)nc12` (stereo unspecified): the MfI result is “Noncurative dose”.

In the case of `NC(=O)c1cc(C(O)C2CCCCN2)c2cccc(C(F)(F)F)c2n1` (stereo unspecified), the MfI result is “Noncurative dose”.

In the case of `OC(c1ccnc2c(Cl)cccc12)C1CCCCN1` (stereo unspecified), the MfI result is recorded as “Noncurative dose”.

As to `OC(c1cc(-c2ccc(Cl)cc2)nc2c(Cl)cccc12)C1CCCCN1` (stereo unspecified), the MfI entry is listed as “Noncurative dose”.

`Cc1cc(C)c2nc(C(F)(F)F)cc(C(O)C3CCCCN3)c2c1` (stereo unspecified): the MfI result is on record as “Noncurative dose”.

As for `Cc1cccc2c(C(O)C3CCCCN3)cc(-c3ccccc3)nc12` (stereo unspecified), the MfI result is “Noncurative dose”.

As to `OC(c1cc(-c2ccc(Cl)cc2)nc2c1ccc1ccccc12)C1CCCCN1` (stereo unspecified), the MfI entry is recorded as “Noncurative dose”.
